The source made the active and inactive calls.
Experiments:
[1] = molecular target: Induced myeloid leukemia cell differentiation protein Mcl-1 (Homo sapiens, UniProt Q07820); assay type: functional
Genome polyprotein = Genome polyprotein (Hepatitis C virus, UniProt Q2Q167); experiment: HCV core protein dimerization inhibitors, dose response, biochemical, TR-FRET (AID 2159); parameters: species or system Hepacivirus hominis;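 note: blocks dimerization of HCV core protein measured by TR-FRET between tagged core106 pairs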
Estrogen receptor = molecular target: T1, Estrogen receptor (Homo sapiens, UniProt P03372);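 note: potency for inhibiting coactivator peptide recruitment to the receptor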
T1 sequence (P03372 whole entry): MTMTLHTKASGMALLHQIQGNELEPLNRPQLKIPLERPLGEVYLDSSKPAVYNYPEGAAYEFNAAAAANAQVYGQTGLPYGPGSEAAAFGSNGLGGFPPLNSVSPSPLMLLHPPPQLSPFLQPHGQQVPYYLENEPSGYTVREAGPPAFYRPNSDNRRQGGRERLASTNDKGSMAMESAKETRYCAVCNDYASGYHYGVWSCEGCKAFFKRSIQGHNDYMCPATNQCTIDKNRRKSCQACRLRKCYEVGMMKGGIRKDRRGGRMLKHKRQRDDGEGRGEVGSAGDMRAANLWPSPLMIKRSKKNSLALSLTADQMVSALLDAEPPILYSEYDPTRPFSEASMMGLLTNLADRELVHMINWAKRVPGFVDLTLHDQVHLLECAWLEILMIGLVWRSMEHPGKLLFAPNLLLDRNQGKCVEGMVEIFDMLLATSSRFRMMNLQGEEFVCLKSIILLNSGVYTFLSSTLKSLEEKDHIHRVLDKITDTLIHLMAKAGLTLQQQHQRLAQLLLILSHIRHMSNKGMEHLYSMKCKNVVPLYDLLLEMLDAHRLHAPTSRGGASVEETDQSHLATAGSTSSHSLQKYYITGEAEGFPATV

Cytochrome P450 2C19 = Cytochrome P450 2C19 (Homo sapiens, UniProt P33261); experiment: qHTS Assay for Inhibitors and Substrates of Cytochrome P450 2C19. [Related pubchem assays: 410 ]; assay type: ADME; details: read-out: Potency
[2] = M. tuberculosis growth inhibition, HTS (AID 449762); assay type: functional
[3] = molecular target: FAD-linked sulfhydryl oxidase ALR (Homo sapiens, UniProt P55789); experiment: inhibitors of human ALR sulfhydryl oxidase, dose response, biochemical, H2O2 detection, luminescence, cherry-pick (AID 493248)
Chain of FAD-linked sulfhydryl oxidase ALR (P55789 whole entry): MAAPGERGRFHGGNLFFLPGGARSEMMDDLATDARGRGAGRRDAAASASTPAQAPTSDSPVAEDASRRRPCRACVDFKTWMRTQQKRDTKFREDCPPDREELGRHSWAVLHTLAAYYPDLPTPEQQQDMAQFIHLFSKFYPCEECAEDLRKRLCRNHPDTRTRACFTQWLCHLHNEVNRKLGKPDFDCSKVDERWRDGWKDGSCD

Leucine aminopeptidase = molecular target: T2, Leucine aminopeptidase (Plasmodium falciparum 3D7, UniProt Q8IL11); experiment: P. falciparum M17LAP inhibitors, primary screen, biochemical, fluorogenic H-Leu-NHMec substrate, 1536-well (AID 1619); assay type: functional
T2 sequence (Q8IL11 whole entry): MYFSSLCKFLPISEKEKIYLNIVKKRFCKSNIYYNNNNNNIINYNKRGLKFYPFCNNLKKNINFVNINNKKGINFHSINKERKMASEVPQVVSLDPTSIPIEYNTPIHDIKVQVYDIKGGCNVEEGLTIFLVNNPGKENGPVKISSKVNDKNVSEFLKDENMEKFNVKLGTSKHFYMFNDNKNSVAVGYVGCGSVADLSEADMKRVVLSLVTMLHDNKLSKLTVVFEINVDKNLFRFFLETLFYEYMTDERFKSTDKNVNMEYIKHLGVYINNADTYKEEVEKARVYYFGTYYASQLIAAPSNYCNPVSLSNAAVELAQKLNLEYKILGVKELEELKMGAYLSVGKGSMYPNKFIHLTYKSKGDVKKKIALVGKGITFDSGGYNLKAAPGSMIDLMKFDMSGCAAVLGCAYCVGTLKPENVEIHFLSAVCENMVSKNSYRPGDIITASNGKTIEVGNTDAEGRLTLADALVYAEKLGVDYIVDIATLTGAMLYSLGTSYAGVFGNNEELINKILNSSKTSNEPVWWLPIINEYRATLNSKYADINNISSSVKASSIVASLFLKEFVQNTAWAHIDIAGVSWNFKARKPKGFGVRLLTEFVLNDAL

Procathepsin L = Procathepsin L (Homo sapiens, UniProt P07711); experiment: cathepsin L inhibitors, dose response, counter-screen for M1/M17 aminopeptidase inhibitor project, biochemical, QFRET, 1536-well (AID 2214)
Aspartyl aminopeptidase = molecular target: T3, Aspartyl aminopeptidase (Plasmodium falciparum 3D7, UniProt Q8I2J3); experiment: Counterscreen for inhibitors of M1 and M17 aminopeptidases: QFRET-based biochemical high throughput dose response assay for inhibitors of the Plasmodium falciparum M18 Aspartyl Aminopeptidase (PFM18AAP). [Related PubChem assays: 1619 (Screening assay (M17LAP inhibitors).), 1445 (Screening assay (M1AAP inhibitors).)]
T3 sequence (Q8I2J3 whole entry): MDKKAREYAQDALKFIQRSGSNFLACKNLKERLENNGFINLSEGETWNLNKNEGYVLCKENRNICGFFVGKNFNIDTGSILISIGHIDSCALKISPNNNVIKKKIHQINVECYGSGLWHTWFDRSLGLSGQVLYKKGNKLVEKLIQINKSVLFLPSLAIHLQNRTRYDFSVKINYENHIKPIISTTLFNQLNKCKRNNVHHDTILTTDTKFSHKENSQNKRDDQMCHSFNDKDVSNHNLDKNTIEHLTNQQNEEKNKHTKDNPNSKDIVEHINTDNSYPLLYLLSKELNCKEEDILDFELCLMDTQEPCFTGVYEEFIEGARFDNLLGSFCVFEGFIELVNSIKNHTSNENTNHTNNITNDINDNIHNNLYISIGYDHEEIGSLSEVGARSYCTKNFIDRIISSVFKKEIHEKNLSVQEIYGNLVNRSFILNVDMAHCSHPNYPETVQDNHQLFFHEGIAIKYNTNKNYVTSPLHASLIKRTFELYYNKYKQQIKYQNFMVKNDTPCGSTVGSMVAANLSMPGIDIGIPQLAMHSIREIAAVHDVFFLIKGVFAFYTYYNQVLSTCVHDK

[4] = molecular target: T4, Aryl hydrocarbon receptor (Homo sapiens, UniProt P35869); experiment: Luminescence-based cell-based high throughput dose response assay for activators of the Aryl Hydrocarbon Receptor (AHR). [Related pubchem assays: 2796 (Primary screen (AHR activators in singlicate)), 2845 (Confirmation screen (AHR activators in triplicate)), 434939 (Counterscreen (PXR activators in triplicate)), 2804 (Summary (AHR activators))]; assay type: ADME
T4 sequence (P35869 whole entry): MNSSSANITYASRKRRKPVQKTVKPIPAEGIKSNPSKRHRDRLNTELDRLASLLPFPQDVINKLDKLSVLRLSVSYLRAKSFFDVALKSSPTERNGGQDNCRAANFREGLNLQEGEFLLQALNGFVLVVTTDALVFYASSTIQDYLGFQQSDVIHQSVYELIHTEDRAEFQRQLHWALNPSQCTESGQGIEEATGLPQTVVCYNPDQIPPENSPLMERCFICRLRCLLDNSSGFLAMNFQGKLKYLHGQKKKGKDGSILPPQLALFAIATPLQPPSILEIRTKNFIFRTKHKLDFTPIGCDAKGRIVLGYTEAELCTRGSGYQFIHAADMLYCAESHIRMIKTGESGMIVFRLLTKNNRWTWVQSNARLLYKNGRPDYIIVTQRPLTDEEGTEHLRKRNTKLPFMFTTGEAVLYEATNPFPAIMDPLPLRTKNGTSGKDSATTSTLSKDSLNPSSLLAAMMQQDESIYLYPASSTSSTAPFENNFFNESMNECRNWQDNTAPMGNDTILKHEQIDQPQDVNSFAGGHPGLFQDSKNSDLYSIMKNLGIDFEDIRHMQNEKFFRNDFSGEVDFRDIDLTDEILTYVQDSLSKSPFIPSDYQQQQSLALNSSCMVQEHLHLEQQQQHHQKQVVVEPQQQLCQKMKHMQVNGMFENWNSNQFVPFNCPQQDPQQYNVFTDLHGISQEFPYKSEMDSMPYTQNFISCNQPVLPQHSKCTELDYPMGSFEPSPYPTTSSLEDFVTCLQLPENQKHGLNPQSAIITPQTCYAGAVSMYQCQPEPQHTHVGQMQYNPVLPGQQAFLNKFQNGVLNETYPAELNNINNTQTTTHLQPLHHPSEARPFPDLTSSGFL

Bcl-2-related protein A1 [5] = molecular target: T5, Bcl-2-related protein A1 (Mus musculus, UniProt Q07440); experiment: Bfl-1 inhibitors blocking BH3 peptide binding, confirmation, biochemical, TR-FRET, mouse Bfl-1 (AID 621);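 note: TR-FRET binding of GST-Bfl-1 to FITC-labelled Bid peptide via terbium antibody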
T5 sequence (Q07440 whole entry): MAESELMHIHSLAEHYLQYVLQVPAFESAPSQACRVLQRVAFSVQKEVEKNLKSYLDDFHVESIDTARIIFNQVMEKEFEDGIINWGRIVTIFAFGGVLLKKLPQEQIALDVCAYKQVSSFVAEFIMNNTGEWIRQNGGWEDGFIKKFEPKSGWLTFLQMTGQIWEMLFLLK

Bcl-2-related protein A1 [6] = molecular target: T5, Bcl-2-related protein A1; experiment: Bfl-1 inhibitors, primary screen, biochemical, fluorescence polarization, FITC-Bid, mouse (AID 432)
Large T antigen = Large T antigen (Simian virus 40, UniProt P03070); assay type: functional, Betapolyomavirus macacae;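 note: Confirmatory-stage PubChem screen for compounds that inhibit SV40 T antigen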
Chain of Large T antigen (P03070 whole entry): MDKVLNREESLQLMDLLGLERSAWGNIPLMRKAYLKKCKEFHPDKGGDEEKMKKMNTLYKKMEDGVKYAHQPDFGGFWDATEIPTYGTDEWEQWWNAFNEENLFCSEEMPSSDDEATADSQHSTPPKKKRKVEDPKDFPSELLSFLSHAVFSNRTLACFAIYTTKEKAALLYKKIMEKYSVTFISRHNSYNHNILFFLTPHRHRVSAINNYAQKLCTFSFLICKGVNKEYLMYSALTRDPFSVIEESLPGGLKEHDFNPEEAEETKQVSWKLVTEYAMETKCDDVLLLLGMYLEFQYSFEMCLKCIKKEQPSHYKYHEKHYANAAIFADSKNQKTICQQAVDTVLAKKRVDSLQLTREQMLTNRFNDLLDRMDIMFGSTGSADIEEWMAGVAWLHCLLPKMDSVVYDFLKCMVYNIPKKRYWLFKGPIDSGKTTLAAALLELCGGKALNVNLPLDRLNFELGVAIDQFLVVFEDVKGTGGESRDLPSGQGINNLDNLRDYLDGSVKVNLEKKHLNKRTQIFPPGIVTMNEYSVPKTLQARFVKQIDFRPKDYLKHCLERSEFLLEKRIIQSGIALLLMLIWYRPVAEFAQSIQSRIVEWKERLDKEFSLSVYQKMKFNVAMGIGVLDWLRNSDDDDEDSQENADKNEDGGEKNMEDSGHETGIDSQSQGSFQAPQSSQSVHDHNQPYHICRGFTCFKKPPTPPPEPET

Ephrin type-A receptor 4 = Ephrin type-A receptor 4 (Mus musculus, UniProt Q03137); experiment: inhibitors of EphA4 binding to KYL peptide, primary screen, biochemical, colorimetric, mouse EphA4 (AID 689); assay type: functional
[7] = molecular target: Glucose-6-phosphate 1-dehydrogenase (Homo sapiens, UniProt P11413); experiment: human G6PD enzyme inhibitors, dose response, selectivity assay for P. falciparum G6PD inhibitor project, biochemical, fluorescence (AID 504792); assay type: functional
Chain of Glucose-6-phosphate 1-dehydrogenase (P11413 whole entry): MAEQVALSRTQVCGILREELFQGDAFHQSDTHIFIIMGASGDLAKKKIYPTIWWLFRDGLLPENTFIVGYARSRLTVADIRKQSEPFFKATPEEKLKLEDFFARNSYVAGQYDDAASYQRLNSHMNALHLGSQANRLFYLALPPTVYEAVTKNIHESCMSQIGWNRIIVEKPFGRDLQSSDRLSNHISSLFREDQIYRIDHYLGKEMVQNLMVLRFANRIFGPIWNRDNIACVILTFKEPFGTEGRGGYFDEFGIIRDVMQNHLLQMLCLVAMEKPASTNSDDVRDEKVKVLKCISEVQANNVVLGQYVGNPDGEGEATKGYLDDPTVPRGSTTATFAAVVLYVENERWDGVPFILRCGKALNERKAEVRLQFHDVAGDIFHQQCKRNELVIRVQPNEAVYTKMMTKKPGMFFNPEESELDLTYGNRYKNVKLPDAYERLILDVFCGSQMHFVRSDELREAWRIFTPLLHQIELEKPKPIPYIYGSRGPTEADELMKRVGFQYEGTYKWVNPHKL

[8] = molecular target: Peroxisome proliferator-activated receptor gamma/Nuclear receptor corepressor 2 (Homo sapiens, UniProt P37231+Q9Y618); experiment: Counterscreen for NR2E3 inverse agonists: TR-FRET-based biochemical high throughput dose response assay to identify inverse agonists of the interaction between peroxisome proliferator-activated receptor gamma (PPARg) and nuclear receptor co-repressor 2 (NCOR2).; assay type: functional
Chain of Peroxisome proliferator-activated receptor gamma/Nuclear receptor corepressor 2 (P37231 whole entry): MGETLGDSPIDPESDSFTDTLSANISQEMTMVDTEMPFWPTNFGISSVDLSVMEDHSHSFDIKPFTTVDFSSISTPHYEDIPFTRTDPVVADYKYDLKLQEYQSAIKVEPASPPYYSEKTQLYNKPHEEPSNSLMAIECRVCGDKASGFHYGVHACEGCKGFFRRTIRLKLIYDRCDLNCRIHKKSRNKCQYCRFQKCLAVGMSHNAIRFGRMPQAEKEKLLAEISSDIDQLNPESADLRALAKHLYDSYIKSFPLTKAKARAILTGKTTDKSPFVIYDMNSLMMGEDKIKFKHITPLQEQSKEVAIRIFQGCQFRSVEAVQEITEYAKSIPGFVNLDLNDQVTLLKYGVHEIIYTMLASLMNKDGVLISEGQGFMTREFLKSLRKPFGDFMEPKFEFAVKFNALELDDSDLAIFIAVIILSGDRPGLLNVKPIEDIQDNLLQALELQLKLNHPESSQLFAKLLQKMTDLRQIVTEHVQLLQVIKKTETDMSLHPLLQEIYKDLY
Chain of Peroxisome proliferator-activated receptor gamma/Nuclear receptor corepressor 2 (Q9Y618 whole entry): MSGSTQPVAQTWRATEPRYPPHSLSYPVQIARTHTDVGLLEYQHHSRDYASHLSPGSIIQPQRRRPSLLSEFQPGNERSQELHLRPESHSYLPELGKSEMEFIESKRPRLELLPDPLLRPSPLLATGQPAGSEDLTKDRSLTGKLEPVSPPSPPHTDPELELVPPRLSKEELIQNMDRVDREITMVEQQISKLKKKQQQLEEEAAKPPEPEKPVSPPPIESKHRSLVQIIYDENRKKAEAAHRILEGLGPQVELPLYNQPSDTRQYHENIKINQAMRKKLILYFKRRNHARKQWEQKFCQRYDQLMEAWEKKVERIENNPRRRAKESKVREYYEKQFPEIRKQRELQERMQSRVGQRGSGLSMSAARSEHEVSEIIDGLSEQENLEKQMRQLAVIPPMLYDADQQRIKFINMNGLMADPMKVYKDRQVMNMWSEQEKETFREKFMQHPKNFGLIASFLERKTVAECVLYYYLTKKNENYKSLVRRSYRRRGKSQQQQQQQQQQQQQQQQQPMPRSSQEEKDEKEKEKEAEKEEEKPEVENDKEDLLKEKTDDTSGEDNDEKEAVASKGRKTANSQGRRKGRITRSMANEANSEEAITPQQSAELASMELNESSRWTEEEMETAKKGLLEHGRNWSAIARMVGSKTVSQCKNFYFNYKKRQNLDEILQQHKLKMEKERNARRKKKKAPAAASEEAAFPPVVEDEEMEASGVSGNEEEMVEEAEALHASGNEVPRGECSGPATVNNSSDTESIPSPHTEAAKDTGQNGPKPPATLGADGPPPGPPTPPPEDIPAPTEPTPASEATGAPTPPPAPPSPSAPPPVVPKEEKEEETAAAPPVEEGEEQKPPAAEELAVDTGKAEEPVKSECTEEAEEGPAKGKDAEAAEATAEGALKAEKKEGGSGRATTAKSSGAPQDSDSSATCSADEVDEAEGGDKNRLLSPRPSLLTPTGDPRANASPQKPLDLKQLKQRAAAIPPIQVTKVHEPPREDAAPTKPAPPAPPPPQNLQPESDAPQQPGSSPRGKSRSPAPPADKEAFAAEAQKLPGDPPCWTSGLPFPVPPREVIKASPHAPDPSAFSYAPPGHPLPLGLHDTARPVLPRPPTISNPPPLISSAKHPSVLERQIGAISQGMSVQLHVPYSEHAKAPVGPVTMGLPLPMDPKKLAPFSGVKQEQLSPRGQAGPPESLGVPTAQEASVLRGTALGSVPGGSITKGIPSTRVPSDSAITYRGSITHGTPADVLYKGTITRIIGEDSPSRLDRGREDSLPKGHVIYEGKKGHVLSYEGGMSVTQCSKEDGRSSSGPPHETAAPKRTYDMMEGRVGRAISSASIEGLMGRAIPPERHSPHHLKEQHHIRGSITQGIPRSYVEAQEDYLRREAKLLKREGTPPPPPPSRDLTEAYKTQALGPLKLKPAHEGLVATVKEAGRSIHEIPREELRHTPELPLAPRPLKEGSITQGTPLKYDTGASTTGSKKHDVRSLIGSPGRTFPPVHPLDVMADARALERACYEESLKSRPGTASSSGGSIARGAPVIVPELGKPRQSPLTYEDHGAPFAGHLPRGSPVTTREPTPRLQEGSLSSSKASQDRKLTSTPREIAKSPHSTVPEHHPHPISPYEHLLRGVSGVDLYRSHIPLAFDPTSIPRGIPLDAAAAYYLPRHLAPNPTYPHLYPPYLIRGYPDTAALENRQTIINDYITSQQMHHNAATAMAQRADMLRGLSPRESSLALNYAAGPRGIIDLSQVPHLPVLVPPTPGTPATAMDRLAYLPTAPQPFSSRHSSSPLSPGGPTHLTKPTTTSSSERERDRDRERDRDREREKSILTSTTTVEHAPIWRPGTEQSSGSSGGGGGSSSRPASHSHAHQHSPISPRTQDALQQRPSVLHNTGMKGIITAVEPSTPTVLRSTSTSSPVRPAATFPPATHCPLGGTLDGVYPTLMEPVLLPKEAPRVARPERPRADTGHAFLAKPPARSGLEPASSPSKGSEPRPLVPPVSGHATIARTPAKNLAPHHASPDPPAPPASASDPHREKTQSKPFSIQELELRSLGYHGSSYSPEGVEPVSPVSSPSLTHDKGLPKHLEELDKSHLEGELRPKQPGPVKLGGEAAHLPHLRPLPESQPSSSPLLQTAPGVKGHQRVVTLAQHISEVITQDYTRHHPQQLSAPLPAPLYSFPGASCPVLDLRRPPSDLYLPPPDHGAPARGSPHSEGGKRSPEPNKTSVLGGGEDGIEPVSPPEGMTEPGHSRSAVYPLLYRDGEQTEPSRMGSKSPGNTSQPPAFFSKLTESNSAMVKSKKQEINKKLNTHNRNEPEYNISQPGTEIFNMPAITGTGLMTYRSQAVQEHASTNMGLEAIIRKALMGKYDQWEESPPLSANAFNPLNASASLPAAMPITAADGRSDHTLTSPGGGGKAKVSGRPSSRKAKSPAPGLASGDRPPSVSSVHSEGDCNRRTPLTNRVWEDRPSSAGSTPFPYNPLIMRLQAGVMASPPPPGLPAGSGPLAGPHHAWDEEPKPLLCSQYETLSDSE

[9] = molecular target: Photoreceptor-specific nuclear receptor (Homo sapiens, UniProt Q9Y5X4); experiment: NR2E3 inverse agonists, dose response, biochemical, TR-FRET (AID 463256); assay type: functional
Galanin receptor type 2 = Galanin receptor type 2 (Homo sapiens, UniProt O43603); experiment: Dose Response cell-based high-throughput screening assay to identify antagonists of galanin receptor 2 (GALR2). [Related pubchem assays: 828, 866 ]; assay type: functional
Bcl-2-related protein A1 [10] = molecular target: T5, Bcl-2-related protein A1; experiment: Bfl-1 binding inhibitors, SAR follow-up, biochemical, fluorescence polarization (AID 1070)
Streptococcus = experiment: Group A Streptococcus viability loss, dose response, counter-screen for streptokinase expression inhibitor project, luminescence, BacTiterGlo (AID 1915); assay type: functional, organism-based;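 note: potency for reduction of bacterial viability or growth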
[11] = molecular target: Voltage-gated inwardly rectifying potassium channel KCNH2 (Homo sapiens, UniProt Q12809); experiment: hERG protection from proarrhythmic block, potency, dose response, cell-based, thallium flux (AID 2121); assay type: ADME
[12] = inhibitors of intracellular T. cruzi replication, confirmation, NIH3T3 host cells, beta-gal luminescence (AID 2044); assay type: functional, cell-based;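 note: intracellular parasites grown in NIH/3T3 mouse fibroblasts as host cells; luminescent beta-galactosidase reporter signal from transgenic T. cruzi replicating inside host cells; inhibitors lower the luminescence signal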
cells [13] = assay type: functional, cell-based
cells [14] = assay type: functional, cell-based; remark: listed apart in the source
[15] = test system: Streptococcus sp. 'group A'; experiment: growth inhibition of control SK(-) GAS strain, dose response, counter-screen for streptokinase expression inhibitor project, luminescence, kanamycin, BacTiterGlo, confirmation (AID 1900); assay type: functional, organism-based
INS1 = experiment: beta cell apoptosis inhibitors, cytokine rescue, dose response, luminescence, retest (AID 449756); assay type: functional, cell-based; details: Rattus norvegicus;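 note: cell death triggered by IL-1 beta plus TNF-alpha plus IFN-gamma mixture; protective hits raise ATP signal compared with cytokine alone wells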
[16] = cytotoxicity toward NIH3T3 fibroblasts, dose response, counter-screen, cell-based, ATP luminescence, mouse fibroblasts (AID 2010); assay type: functional;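 note: cells exposed to compound for about 90 hours before reading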
[17] = Fluorescence Cell-Based Dose Response to Identify Inhibitors of Thrombin Receptor-Activating Peptide SFLLRN-Mediated P-Selectin Induction on Platelets. [Related pubchem assays: 1663 (Primary HTS), 1889 (retest at dose ), 1891 (counterscreen), 1678 (Project Summary)]; assay type: functional
[18] = molecular target: Luciferin 4-monooxygenase (Photinus pyralis, UniProt P08659); experiment: firefly luciferase enzyme inhibitors, dose response, biochemical, luminescence (AID 1891)
Chain of Luciferin 4-monooxygenase (P08659 whole entry): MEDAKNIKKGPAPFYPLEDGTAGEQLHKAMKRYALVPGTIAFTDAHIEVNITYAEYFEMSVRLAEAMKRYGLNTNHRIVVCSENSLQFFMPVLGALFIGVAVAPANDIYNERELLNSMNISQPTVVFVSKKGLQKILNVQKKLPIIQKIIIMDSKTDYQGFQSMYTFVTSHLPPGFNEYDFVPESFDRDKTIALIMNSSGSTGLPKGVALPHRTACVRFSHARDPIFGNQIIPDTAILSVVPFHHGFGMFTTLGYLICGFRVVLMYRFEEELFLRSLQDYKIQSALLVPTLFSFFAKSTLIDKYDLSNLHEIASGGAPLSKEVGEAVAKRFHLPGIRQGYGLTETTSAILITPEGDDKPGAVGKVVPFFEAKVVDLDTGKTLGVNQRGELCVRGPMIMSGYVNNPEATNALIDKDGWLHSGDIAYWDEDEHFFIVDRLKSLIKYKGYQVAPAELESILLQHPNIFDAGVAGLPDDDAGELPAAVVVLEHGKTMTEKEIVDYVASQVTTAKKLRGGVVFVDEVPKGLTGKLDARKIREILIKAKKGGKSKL

[19] = Luminescence Cell-Based Dose Confirmation HTS to Identify Inhibitors of Platelet Dense Granule Release. [Related pubchem assays: 1663 (Primary HTS), 1678 (Summary of Project)]; assay type: functional

Cc1oc(-c2ccc(Cl)cc2)cc1-c1nn2c(-c3ccoc3C)nnc2s1
IC50 [1]: 3.8 µM (not active) | IC50 (Genome polyprotein): > 49.8 µM (not active) | IC50 (Estrogen receptor): 2.77 µM (active)

COc1ccccc1N1CCN(CCN(C(=O)c2ccc(I)cc2)c2ccccn2)CC1
AC50 (Cytochrome P450 2C19): 10 µM (inconclusive)

O=C1CCC(=O)N1CNc1ccc(Oc2ccccc2)cc1
IC50 [2]: > 100 µM (active) | AC50 [3]: 0.166 µM (active)

N#Cc1c(NC(=O)C2C3C=CC(C3)C2C(=O)O)sc2c1CCCCC2 (stereo unspecified)
IC50 (Leucine aminopeptidase): 1.39 µM (active) | IC50 (Procathepsin L): > 59.6 µM (not active) | IC50 (Aspartyl aminopeptidase): > 73.5 µM (not active)

CC(=O)c1noc(C)c1C(=O)Nc1nccs1
EC50 [4]: 6.46 µM (active)

COc1ccc(N2C(=O)C(Cl)=C(Nc3c(C)n(C)n(-c4ccccc4)c3=O)C2=O)cc1
IC50 (Bcl-2-related protein A1 [5]): > 100 µM (not active) | IC50 (Bcl-2-related protein A1 [6]): > 100 µM (not active)

COc1ccccc1N1CSC2=C(C#N)C(c3ccc(SC)cc3)CC(=O)N2C1 (stereo unspecified)
IC50 (Large T antigen): 28.4 µM (active) | IC50 (Ephrin type-A receptor 4): 21.5 µM (active) | IC50 [7]: > 80 µM (inactive)

O=C(Cc1ccccc1)Nc1ccc2oc(-c3ccncc3)nc2c1
IC50 [8]: 6.54 µM (active) | IC50 [9]: 6.31 µM (active)

CCOC(=O)c1ccc(N2C(=O)CC(N3CCC(O)(c4ccc(Br)cc4)CC3)C2=O)cc1 (stereo unspecified)
IC50 (Galanin receptor type 2): > 42 µM (not active)

O=C1C(Cl)=C(N2CCN(C/C=C/c3ccccc3)CC2)C(=O)N1c1ccc(Cl)c(Cl)c1
IC50 (Bcl-2-related protein A1 [5]): 0.73 µM (active) | IC50 (Bcl-2-related protein A1 [10]): 0.594 µM (active)

Cc1ccc(N=Nc2ccc(O)c3ncccc23)cc1
EC50 (Streptococcus): 1.56 µM (active) | EC50 [11]: 2.02 µM (active) | EC50 [12]: 0.686 µM (active) | EC50 (cells [13]): 9.69 µM (active) | EC50 (cells [14]): > 350 µM (not active) | EC50 [15]: 0.165 µM (active) | AC50 (INS1): 1.3 µM (active) | EC50 [16]: 32.7 µM (active)

C/C(=N/NC(=O)C1CCCC1)c1ccc(NC(=O)C(F)(F)F)cc1
EC50 [17]: < 1 µM (active) | EC50 [18]: > 112 µM (not active) | EC50 [19]: 3.55 µM (active)
